Data from a compilation of properties of binary mixtures (doi:10.1016/j.fluid.2006.05.028).
Each block holds one compound with its values, some of them ahead of it.

Assay: xn = mol fraction of the nth substance listed
Details: 298.15 K, 101.3 kPa

electrical conductivity (x1 = 0.004): 1.35 S/m | electrical conductivity (x1 = 0.0084): 2.11 S/m | electrical conductivity (x1 = 0.0133): 2.76 S/m | electrical conductivity (x2 = 0.4084): 1.3 S/m | electrical conductivity (x2 = 0.5931): 2.03 S/m | electrical conductivity (x2 = 0.6983): 2.55 S/m | electrical conductivity (x2 = 0.7663): 3.03 S/m | electrical conductivity (x2 = 0.8139): 3.54 S/m | electrical conductivity (x2 = 0.876): 4.14 S/m | electrical conductivity (x2 = 0.8974): 4.31 S/m | electrical conductivity (x2 = 0.9148): 4.41 S/m | electrical conductivity (x2 = 0.9413): 4.43 S/m | electrical conductivity (x2 = 0.9516): 4.33 S/m | electrical conductivity (x2 = 0.9606): 4.16 S/m
Structure (SMILES): CCOS(=O)(=O)[O-].CC[n+]1ccn(C)c1 + O

electrical conductivity (x2 = 0.65): 0.292 S/m
Structure (SMILES): [Br][Al]([Br])[Br] + CC[n+]1ccccc1.[Br-]

electrical conductivity (x1 = 1): 0.0026 S/m
Structure (SMILES): O + CCOS(=O)(=O)[O-].CC[n+]1ccn(C)c1
